This is an account of results in a melting point compilation (Tetko et al.; mined from patent text by program, amines drawn as free bases though some values may be those of a salt).

As a reminder, the melting point is the temperature of the solid-liquid transition. The molecule `CC(=O)c1ccc(-c2ccc(Cl)cc2)cc1` showed a melting point of 100 to 101 °C.
On to `CNC(=S)Nc1ccc2c(c1)C(=O)C1(CC1)O2`, for which the melting point lay in the range of 191 to 194 °C.
The figure for `CC(C)C(C)(C)NC(N)=O` is 175 to 176 °C; for `COc1cc(OC)nc(C2OC(=O)c3c(-c4ccccc4)ccnc32)n1` (centres undefined) it is 151 to 154 °C; for `CCCC1(OCCO)CCNCC1` it is 72 °C.
Molecule `O=C(Nc1cccc2cc(CO)cnc12)c1c(Cl)cccc1Cl` registered a melting point of 224 to 226 °C.
The figure for `O=C(Nc1ccc(F)cc1F)NN1CC=CCC1` is 136 to 137 °C.
The figure for `O=C(c1c[nH]c2cc(Oc3ccc(F)cc3)ccc12)C1CSC(c2cccnc2)N1` (centres undefined) is 189 to 191 °C.
The figure for `CCOC(=O)CCCc1ccc(CCl)cc1` is 152 to 155 °C; for `N#Cc1c(-c2cccc(N)c2)cc(-c2ccccc2O)nc1NC(=O)C1CCCCC1` it is 236 to 238 °C; for `COc1nc2ccc(Br)cc2c2c1C(C)(O)c1ccccc1-2` (centres undefined) it is 159 to 160 °C.
Consider `CCOC(=O)Cc1nsc2ccc([N+](=O)[O-])cc12`, for which the melting point lay within 91 to 92 °C.
The figure for `Cc1nc2c(C#N)c(C)nn2c(Cl)c1CCCl` is 113 to 115 °C; for `O=C1NCCc2ccc(OCCCCN3CCN(c4cccc5ccccc45)CC3)nc2N1` it is 188 to 190 °C.
The figure for `COc1ccc(C2(C34CC5CC(CC(C5)C3)C4)N=C(N)N(C)C2=O)cc1` (centres undefined) is 150 to 155 °C; for `O=C1CCc2cc(Cl)ccc2C(=O)CCCN1` it is 142 to 144 °C; for `C#CCOc1ccc(COC(C)=O)cc1OC` it is 69 to 71 °C.
As for `Cn1c(=O)c2c(ncn2CC(O)Cc2noc(-c3ccccc3)n2)n(C)c1=O` (centres undefined), the figure is 179 to 180 °C.
Regarding `Cc1ncc2c(c1OCC(=O)O)COC2(C)c1ccc(Cl)cc1` (centres undefined), the melting point amounted to 184 °C.
Consider `Cc1ccccc1NC(=O)C1(C)CCCCC1`, for which the melting point amounted to 138 °C.
As for `CNCC1Cc2cc(F)cc(-c3cc(Cl)ccc3Cl)c2O1` (centres undefined), the figure is 118 to 120 °C; as for `CC(=O)Nc1ncnc2[nH]nc(C#N)c12`, greater than 360 °C.
The figure for `CN1C(=O)C(NC(=O)Nc2ccccc2Cl)N=C(c2ccccc2)c2ccccc21` (centres undefined) is 212 to 214 °C; for `CC(C)c1ccc2nc3ccc(C#N)cc3c(=O)n2c1` it is 207 to 211 °C.
`O=C(c1ccc(O)cc1)c1c(-c2ccccc2)cc2ccccn12` returned a melting point of 179 °C.
The figure for `Cc1ccc(S(=O)(=O)Oc2ccc(S(=O)(=O)C3=Cc4ccccc4C3)cc2)cc1` is 174 °C; for `CC(C)c1ccc2c(c1)c(SCC1CC1)c(CC(C)(C)C(=O)O)n2Cc1ccc(Cl)cc1` it is 123 to 124 °C; for `COC(=O)[C@H](Cc1ccc(NC(=O)c2c(Cl)cccc2Cl)cc1)NC(=O)c1c(C)cccc1Cl` it is 244 to 245 °C.
Regarding `Cc1nnc2n1-c1ccc(C(=O)O)cc1C(c1ccccc1Cl)=NC2`, the melting point was in the range of 169 to 173 °C.
The figure for `CS(=O)c1ccc(Nc2ccn(-c3ccccc3)n2)cc1` (centres undefined) is 123 to 124 °C; for `CCN(CC)C(=O)c1cc(-c2ccc(OC)cc2)c2ccsc2c1` it is 88 °C; for `Cc1ccc(N2CCN(CCCc3[nH]nc4c3CCC4)CC2)cc1` it is 101 to 102 °C.
As for `COC(=O)C(=Cc1ccc(F)c(Cl)c1)N=[N+]=[N-]`, the figure is 72 to 74 °C; as for `CN(CCn1ncc(-c2ccccc2)cc1=O)CC(O)c1ccc(NS(C)(=O)=O)cc1` (centres undefined), 108 °C; as for `COC(=O)c1cc2cc(C(=O)c3ccc(F)cc3)sc2s1`, 220 °C.
As for `Cc1ccc(-c2nc(Cl)nc(Cl)c2-c2ccc(Cl)cc2)cc1`, the figure is 223 to 225 °C; as for `CC(=O)NC(C)(C)c1ccc(CN2CCN(c3ccc(F)cc3)CC2)cc1`, 104 to 106 °C.
`COc1cc2c(cc1OC)[C@@H]1CN(C)CC[C@@H]1N=C2c1cccc(C(F)(F)F)c1` (relative stereo) gave a melting point of 215 to 217 °C.
For `Cc1c(C(=O)Nc2ccc(N3CCN(CCO)CC3)c(C#N)c2)cnn1-c1ccc(F)c(Cl)c1`, the melting point was determined as 191 °C.
As for `CCOC(=O)C(=O)Nc1ccc2c(=O)n3c(nc2c1)C(=Cc1ccc(OC)cc1OC)CC3`, the figure is 285 to 288 °C; as for `CC(=O)NCc1c(C)cc(CO)cc1C`, 194 °C; as for `CC(=O)Nc1ccc(Sc2ccc(Br)cc2)cc1`, 153 to 155 °C.
The figure for `CCNC(=S)N1CCN([C@H](C)[C@](O)(Cn2cncn2)c2ccc(F)cc2F)CC1` is 96 to 98 °C; for `Cc1nnc(-c2ccc3ncn(-c4ccc(OC(F)(F)F)c(Cl)c4)c3c2)o1` it is 211 to 212 °C; for `CS(=O)(=O)Nc1c(O)ccc2c1CCCC2C1=NCCN1` (centres undefined) it is 263 to 265 °C.
In turn, `O=C(CCS)NC1CCCCC1` came in with a melting point of 73.5 to 75.5 °C.
On to `c1ccc(-c2ncc(-c3nnc(-c4ccccc4)[nH]3)cn2)cc1`, for which the melting point fell in the range of 280 to 282 °C.
As to `C[C@H]1[C@@H](CO)CCN1c1ccc(C#N)c2sccc12`, the melting point fell in the range of 109 to 111 °C.
The figure for `CN(c1c(Cl)ccc2cc(-c3ncc(CO)s3)[nH]c12)S(=O)(=O)c1cccs1` is 214 to 215 °C; for `N#CCCN1CCC2C(C1)c1ccccc1N2c1ccccc1` (centres undefined) it is 108 °C.
The figure for `CN=C(Nc1cc(Cl)cc(Cl)c1)N1CCN(c2ccc(OC(C)=O)cc2OC)CC1` is 144 °C; for `O=C(Nc1n[nH]c2nc(Oc3ccc(F)cc3F)ncc12)C1CCCC1` it is 206 to 208 °C.
As for `CCn1cc(C(=O)O)c(=O)c2c1SC(=NOCC(=O)O)C2`, the figure is 249 to 250 °C; as for `CCn1nnc(-c2cccc(-c3ccnc4c(-c5cc(C)cc(C)c5)cnn34)c2)n1`, 65 °C; as for `CN(Cc1coc(C=Cc2ccc(C(F)(F)F)cc2)n1)c1ccc(OCCCn2ccnn2)cc1`, 137 to 138 °C.
On to `CCOC(=O)/C=C/c1cc(Br)ccc1N(C)Cc1cnn(C)c1`, for which the melting point fell in the range of 67 to 68 °C.
The figure for `Cc1cc(C(=O)N2Cc3cccn3Cc3ccccc32)ccc1NC(=O)c1ccccc1C` is 125 to 130 °C; for `NCc1cc(CN)cc(CN)c1` it is 49 to 51 °C; for `CS(=O)c1c(C2(C)NCCS2)nn(-c2c(Cl)cc(C(F)(F)F)cc2Cl)c1N` (centres undefined) it is 85 °C.
The figure for `CCOC(=O)C1=Cc2cccc(NC(=O)CCCCl)c2OCC1` is 98 to 99 °C.
As for `COc1ccc(C2(O)OC(=O)C(c3cc(C)c4nsnc4c3)=C2Cc2cc(OC)c(OC3CCCCC3)c(OC)c2)cc1F` (centres undefined), the figure is 163 to 164 °C; as for `CC(c1oc2ccccc2c(=O)c1-c1cc(F)cc(F)c1)n1cnc2c(N)ncnc21` (centres undefined), 267 to 269 °C; as for `NC(CO)(CCCc1ccc(Sc2cccc(OCc3ccccc3)c2)cc1Cl)CCP(=O)(O)O` (centres undefined), 193 to 196 °C.
With `Cc1ccc(C(C)N(O)C(=O)c2ccc(S(C)(=O)=O)cc2)o1` (centres undefined), the melting point was found to be 177 °C.
In turn, `CC#CCOc1ccc(S(=O)(=O)C2(C(=O)O)CCN(C(CC)CC)CC2)cc1` registered a melting point of 98 °C.
In turn, `CCOc1cccc(-c2cc3n(n2)CCc2ccccc2-3)c1` gave a melting point of 103 to 104 °C.
`CC(C)(C)OC(=O)NC1CCN(c2ccc(C#N)cc2)CC1` came in with a melting point of 188 to 189 °C.
Take `O=CC(=Cc1ccccc1OCc1ccccc1)C(C=O)=Cc1ccccc1OCc1ccccc1`: the melting point fell in the range of 120 to 121 °C.
The figure for `CCOC(=O)c1cn(C2CC2)c2oc(CN3CCOCC3)cc2c1=O` is 196 to 198 °C; for `CC(C)(c1ccc(N)cc1)c1ccc(N)cc1` it is 130 to 132 °C; for `CCOC(=O)C(CC(C)C)NC(=O)C(Cc1ccccc1)NC(=O)CNC(=O)CNC(=O)C(Cc1ccc(OCc2ccccc2)cc1)NC(=O)OC(C)(C)C` (centres undefined) it is 149 to 152 °C.
As for `CCCCc1c(NCCCO)cnn(C(C)(C)C)c1=O`, the figure is 106 to 108 °C; as for `N#Cc1ccc(C(O)c2occc(=O)c2OCc2ccccc2)cc1` (centres undefined), 135 to 138 °C.
The figure for `O=C(O)COc1ccc(NC(=O)OCc2ccccc2)cc1` is 152 to 154 °C.
As for `Cc1ccc(N2CSC(=NCC(F)(F)F)N(Cc3ccc(C(F)(F)F)cc3)C2=O)cc1`, the melting point is 62 to 63 °C.
The figure for `O=C(Nc1ccc(C(=O)N2C[C@@H]3CCCN3c3ccccc32)cc1)c1ccccc1-c1ccccc1` is 200 °C; for `O=S(=O)(c1ccccc1)n1nc(-c2ccncc2)nc1-c1ccncc1` it is 210 to 212 °C.
The figure for `CC(C)(C)OC(=O)[C@@](C)(C#N)[C@H](c1ccccc1C(F)(F)F)c1cccc2ccccc12` (racemic) is 159 to 161 °C.
As for `O=C1Nc2ccccc2C1CCCCN1CCN(c2ccc(Cl)c(Cl)c2)CC1` (centres undefined), the figure is 112 to 114 °C; as for `C[Si](Cl)(Cl)C(c1ccccc1)(c1ccccc1)c1ccccc1`, 170 to 172 °C; as for `C#CCOCc1nnc(Cl)c2ccccc12`, 131 to 132 °C.
Consider `O=S(=O)(NCC1CCN(C[C@H]2COc3ccc(C(F)(F)F)cc3O2)CC1)c1cccc(Cl)c1Cl`, for which the melting point lay in the range of 139 to 140 °C.
As for `C=CC(=O)OCCN(CCOC(=O)C=C)c1ccc(N=Nc2ccc([N+](=O)[O-])cc2)cc1`, the figure is 91 to 93 °C; as for `COc1ccc(C(=O)c2c(Cl)cc(Cl)cc2Cl)cc1Cc1ccc(=O)n(C)n1`, 150 °C.
The figure for `Cc1c(OCc2ccc(CC(C)C)cc2)ccc(C(=O)Nc2ccccc2OCCCC(=O)O)c1C` is 143 °C; for `O=[N+]([O-])c1ccc2sc(-c3cccnc3)nc2c1` it is 196 to 198 °C; for `Nc1ccccc1C(=O)NC1CCN(CCCOc2ccc3c4c(c(=O)oc3c2)CCC4)CC1` it is 269 to 270 °C.
The figure for `CNC(=S)N1CCc2[nH]cnc2C1` is 228 °C; for `C[C@@H]1N=C(c2ccccc2Cl)c2cc(N)ccc2N(C)C1=O` it is 221 °C.
